Among the data in ChEMBL document CHEMBL1142922, “Amphipathic benzoic acid derivatives: synthesis and binding in the hydrophobic tunnel of the zinc deacetylase LpxC” (Bioorg Med Chem, 2007) are Kd and Activity values, retold here.

Each structure is given as a SMILES string. The source made the active and inactive calls. The rule behind the calls is not given here.

The target of experiment [1] is T1, UDP-3-O-acyl-N-acetylglucosamine deacetylase (Aquifex aeolicus (strain VF5), UniProt O67648).
T1 sequence (O67648 whole entry): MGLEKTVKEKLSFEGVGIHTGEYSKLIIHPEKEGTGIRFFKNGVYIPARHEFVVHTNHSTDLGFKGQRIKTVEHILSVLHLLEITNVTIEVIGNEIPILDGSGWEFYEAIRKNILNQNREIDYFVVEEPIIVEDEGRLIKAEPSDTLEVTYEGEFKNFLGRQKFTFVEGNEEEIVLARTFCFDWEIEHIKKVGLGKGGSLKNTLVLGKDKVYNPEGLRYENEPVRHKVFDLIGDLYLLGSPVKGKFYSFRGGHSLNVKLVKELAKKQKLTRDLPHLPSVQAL
As to the kind of experiment: (§1) Binding affinity to Aquifex aeolicus LpxC by isothermal titration calorimetry. (In general: In ITC the heat of successive injections is recorded.)

Experiment [2] concerns the target T2, UDP-3-O-acyl-N-acetylglucosamine deacetylase (Aquifex aeolicus (strain VF5)) (UniProt O67648).
T2 sequence (whole entry): T1 sequence (O67648 whole entry)
The description is as §1.

One may read the Kd as the equilibrium constant for the complex coming apart. A higher Kd goes with lower affinity. Take `CCCCCCCOc1ccc(C(=O)O)cc1`: the Kd in experiment [1] is 2.3 µM.

`CCCCCCCOc1ccc(C(=O)O)cc1OC` yielded an equilibrium dissociation constant (Kd) in experiment [1] of 8.6 µM. This Kd lies about 3.7-fold higher than the previous one.

`CCCCCCCOc1ccc(CC(=O)O)cc1` gave a dissociation constant Kd in experiment [1] of 2.6 µM. This Kd lies about 3.3-fold lower than the previous one. Still for that read-out and setting: the same measure for `CCCCCCCOc1ccc(C(=O)O)cc1Cl`: 30 µM.

As to `COc1ccc(C(=O)O)cc1`, the result in experiment [2] was inactive.

The compound `CCCCCC/C=C/c1ccc(C(=O)O)cc1` yielded a dissociation constant (Kd) in experiment [1] of 6.2 µM. On the same count and under the same terms, next, `CCCCCCCc1ccc(C(=O)O)cc1`: 35 µM. Consider `CCCc1ccc(-c2ccc(C(=O)O)cc2)cc1`, for which the result in experiment [2] was inactive. `CCCCCCCOc1ccc(C(=O)O)cc1[N+](=O)[O-]` gave a Kd in experiment [1] of 6.4 µM.

Consider `CCCCCCCOc1ccc(C(=O)O)cc1O`, for which, in experiment [1], binding was put at a Kd of 9 µM.
